We go through 33 compounds from ChEMBL document CHEMBL1129000, “Inhibitors of acyl-CoA: cholesterol O-acyl transferase (ACAT) as hypocholesterolemic agents. The synthesis and biological activity of a series of malonester amides” (Bioorg Med Chem Lett, 1996).

Active and inactive are the calls of the source. The rule behind the calls is not given here.

In assay [1] the target is O-acyltransferase (Oryctolagus cuniculus, UniProt G1SFD9). Description: In vitro inhibitory activity against Acyl coenzyme A:cholesterol acyltransferase in intestinal microsomes isolated from cholesterol fed rabbits (IAI). Further details: species or system Intestine.
In assay [2] the test system is Rattus norvegicus. Description: In vivo percent change in the total cholesterol after consumption of a single high fat, high cholesterol meal by rats. The class given is functional.
In assay [3] the test system is Rattus norvegicus. The experiment in a line: Tested for the percentage change in non HDL-C in pre-established hypercholesterolemia (CPCC) model at a dose of 30 mg/kg. The class given is functional.
Assay [4] relates to Rattus norvegicus. Description: Tested for the percentage change in non HDL in pre-established hypercholesterolemia (CPCC) model fat at a dose of 30 mg/kg. The class given is functional.
Assay [5] deals with Rattus norvegicus. The experiment in a line: Tested for the percentage change in HDL in pre-established hypercholesterolemia (CPCC) model fat at a dose of 30 mg/kg. The format is functional.
In assay [6] the test system is Rattus norvegicus. Description: Tested for the percentage change in non HDL-C in pre-established hypercholesterolemia (CPCC) model fat at a dose of 1 mg/kg. The format is functional.
The test system of assay [7] is Rattus norvegicus. Description: Tested for the percentage change in non HDL-C in pre-established hypercholesterolemia (CPCC) model at a dose of 0.1 mg/kg. The class given is functional.
Assay [8] relates to Rattus norvegicus. The experiment in a line: Tested for the percentage change in HDL in pre-established hypercholesterolemia (CPCC) model at a dose of 1 mg/kg. The class given is functional.
Assay [9] concerns Rattus norvegicus. The experiment in a line: Tested for the percentage change in HDL in pre-established hypercholesterolemia (CPCC) model at a dose of 3 mg/kg. The class given is functional.
For assay [10], the system named is Rattus norvegicus. The experiment in a line: Tested for the percentage change in HDL in pre-established hypercholesterolemia (CPCC) model at a dose of 0.1 mg/kg. The class given is functional.
The subject of assay [11] is Rattus norvegicus. Description: Tested for the percentage change in non HDL-C in pre-established hypercholesterolemia (CPCC) model at dose of 3 mg/kg. The class given is functional.
For assay [12], the system named is Rattus norvegicus. Description: Tested for the percentage change in HDL in pre-established hypercholesterolemia (CPCC) model at a dose of 10 mg/kg (p<0.05). The format is functional.
For assay [13], the system named is Rattus norvegicus. Description: Tested for the percentage change in non HDL-C in pre-established hypercholesterolemia (CPCC) model at dose of 10 mg/kg (p<0.05). The format is functional.
The test system of assay [14] is Rattus norvegicus. Description: Tested for the percentage change in HDL in pre-established hypercholesterolemia (CPCC) model at a dose of 1 mg/kg (p<0.05). The format is functional.
Assay [15] relates to Rattus norvegicus. The experiment in a line: Tested for the percentage change in HDL in pre-established hypercholesterolemia (CPCC) model at a dose of 3 mg/kg (p<0.05). The class given is functional.
Assay [16] deals with Rattus norvegicus. Description: Tested for the percentage change in non HDL-C in pre-established hypercholesterolemia (CPCC) model fat at a dose of 3 mg/kg (p<0.05). The class given is functional.
Assay [17] deals with Rattus norvegicus. Description: Tested for the percentage change in non HDL-C in pre-established hypercholesterolemia (CPCC) model at a dose of 1 mg/kg (p<0.05). The format is functional.
Assay [18] relates to Rattus norvegicus. Description: Tested for the percentage change in non HDL-C in pre-established hypercholesterolemia (CPCC) model at a dose of 1 mg/kg. The class given is functional.
Assay [19] concerns Rattus norvegicus. Description: Tested for the percentage change in HDL in pre-established hypercholesterolemia (CPCC) model at a dose of 1 mg/kg; No change. The class given is functional, organism-based. Further details: dose 1 mg/kg.
The subject of assay [20] is Rattus norvegicus. The experiment in a line: Tested for the percentage change in non HDL-C in pre-established hypercholesterolemia (CPCC) model at dose of 10 mg/kg. The format is functional.
The subject of assay [21] is Rattus norvegicus. Description: Tested for the percentage change in HDL in pre-established hypercholesterolemia (CPCC) model at a dose of 10 mg/kg. The format is functional.
The subject of assay [22] is Rattus norvegicus. The experiment in a line: Tested for the percentage change in non HDL-C in pre-established hypercholesterolemia (CPCC) model fat at a dose of 3 mg/kg. The format is functional.
Assay [23] concerns Rattus norvegicus. Description: Tested for the percentage change in HDL in pre-established hypercholesterolemia (CPCC) model at a dose of 3 mg/kg. The class given is functional.
The subject of assay [24] is Rattus norvegicus. The experiment in a line: Tested for the percentage change in non HDL in pre-established hypercholesterolemia (CPCC) model fat at a dose of 30 mg/kg; Non significant. The format is functional, organism-based. Further details: dose 30 mg/kg.

O-acyltransferase, sequence (G1SFD9 1-524): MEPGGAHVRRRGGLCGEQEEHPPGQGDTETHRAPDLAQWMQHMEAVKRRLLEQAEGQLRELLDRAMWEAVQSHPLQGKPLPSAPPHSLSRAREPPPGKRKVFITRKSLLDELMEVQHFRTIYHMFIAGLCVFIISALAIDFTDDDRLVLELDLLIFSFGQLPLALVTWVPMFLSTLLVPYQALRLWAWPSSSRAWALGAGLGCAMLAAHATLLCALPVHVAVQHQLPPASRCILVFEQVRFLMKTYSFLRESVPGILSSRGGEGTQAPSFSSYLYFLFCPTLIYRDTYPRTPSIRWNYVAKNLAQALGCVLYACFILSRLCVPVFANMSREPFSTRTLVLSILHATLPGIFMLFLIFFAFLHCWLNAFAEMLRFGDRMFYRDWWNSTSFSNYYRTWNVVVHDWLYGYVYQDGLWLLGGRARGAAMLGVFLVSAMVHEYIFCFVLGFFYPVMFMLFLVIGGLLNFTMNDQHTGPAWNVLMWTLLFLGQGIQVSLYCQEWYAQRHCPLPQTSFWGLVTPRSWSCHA

In assay [1], `CC(C)c1cccc(C(C)C)c1NC(=O)CC(=O)O` registered an IC50 of over 5 µM.
For `CCCCC(C)(C)OC(=O)CC(=O)Nc1c(C(C)C)cccc1C(C)C`, the IC50 in assay [1] turned out to be 0.015 µM. In [2], the Change is recorded as -52%.
For `COc1cc(OC)c(NC(=O)CC(=O)Oc2c(C(C)C)cccc2C(C)C)c(OC)c1`, in that order: 1 µM and -29%.
`CC(C)c1cccc(C(C)C)c1NC(=O)CC(=O)OC(c1ccccc1)c1ccccn1` (stereo not given) had an IC50 in assay [1] of over 5 µM.
Still for that read-out and setting: under `CC(C)c1cccc(C(C)C)c1OC(=O)CC(=O)Nc1ccccc1` stands over 5 µM.
In [1], `CC(C)c1cccc(C(C)C)c1OC(=O)CC(=O)Nc1c(N(C)C)cccc1N(C)C` displayed a half-maximal inhibitory concentration (IC50) of 0.071 µM. The Change in assay [2] is reported as -29%.
In the case of `CCOC(=O)CC(=O)Nc1c(C(C)C)cccc1C(C)C`, the IC50 in assay [1] came to 1.8 µM.
In the case of `CCCCCCCCCCCCCCOC(=O)CC(=O)Nc1c(C(C)C)cccc1C(C)C`, the Change in assay [3] is reported as -11%; in assay [4], 6%; in [2], -61%. For the same compound, in assay [1], 0.015 µM corresponded to half-maximal inhibition (IC50).
For the compound `CC(C)c1cccc(C(C)C)c1OC(=O)CC(=O)Nc1ccc(F)cc1F`, it took 6.4 µM to reach half-maximal inhibition in assay [1] (IC50). In other words, the single-digit micromolar range.
Consider `CCCCCCCCCCCCOC(=O)CC(=O)Nc1c(C(C)C)cccc1C(C)C`, for which the figures for the Change in assay [3], in assay [5] and in assay [2] were -8%, -21% and -52%, respectively. The compound further came in with a half-maximal inhibitory concentration (IC50) in [1] of 0.011 µM.
In turn, `CC(C)c1cccc(C(C)C)c1OC(=O)CC(=O)Nc1c(F)cccc1F` had an IC50 in assay [1] of 6.2 µM. Besides, the Change in assay [2] amounted to 4%.
On to `CCCCCCCCCCCCCCC(C)OC(=O)CC(=O)Nc1c(C(C)C)cccc1C(C)C` (stereo not given), for which the Change in assay [6] is recorded as 7%; in [7], -8%; in assay [8], 13%; in assay [2], -60%; in [9], -24%; in assay [10] it was -12%. Besides, the Change in assay [11] is listed as -2%. This compound returned an IC50 in assay [1] of 0.011 µM.
Take `COc1cc(OC)c(OC(=O)CC(=O)Nc2c(C(C)C)cccc2C(C)C)c(OC)c1`: half-maximal inhibition in assay [1] (IC50) required 0.32 µM. For the same compound, the Change in [2] is recorded as -9%.
For `CCCCCCCCCCCCCCCCCCOC(=O)CC(=O)Nc1c(C(C)C)cccc1C(C)C`, half-maximal inhibition in assay [1] (IC50) was put at 0.053 µM. The Change in assay [2] was -16%.
In turn, `CCCCCCOC(=O)CC(=O)Nc1c(C(C)C)cccc1C(C)C` displayed an IC50 in assay [1] of 0.81 µM. Moreover, the Change in assay [2] is -29%.
As to `CCCCCCCCCCCCC(C)OC(=O)CC(=O)Nc1c(C(C)C)cccc1C(C)C` (stereo not given), the Change in assay [12] was 114%; in [13], -83%; in assay [14], 64%; in [15] it was 157%; in assay [2] it was -54%; in [16], -73%. For the same compound, the Change in assay [17] is -54%.
Compound `CCCCCCCCCCCC[C@H](C)OC(=O)CC(=O)Nc1c(C(C)C)cccc1C(C)C` returned an IC50 in assay [1] of 0.004 µM. For the same compound, the Change in assay [2] is -66%.
For `CC(C)c1cccc(C(C)C)c1OC(=O)CC(=O)Nc1c(F)cc(F)cc1F`, in that order: over 5 µM and -9%.
As to `CCCCCCCCCCC(C)OC(=O)CC(=O)Nc1c(C(C)C)cccc1C(C)C` (stereo not given), the Change in assay [18] is recorded as -15%; in assay [20], -51%; in assay [21], 29%; in [22], -40%; in [2], -70%; in [23], 36%. For the same compound, the Change entry in assay [19] was “inactive”. The compound also registered an IC50 in assay [1] of 0.006 µM.
As to `CCCCCC(C)OC(=O)CC(=O)Nc1c(C(C)C)cccc1C(C)C` (stereo not given), in assay [1], it took 0.027 µM to reach half-maximal inhibition (IC50). In assay [2], the Change was -46%.
For `CC(C)c1cccc(C(C)C)c1NC(=O)CC(=O)OC(c1ccccc1)c1ccccc1`, in that order: 0.038 µM and -41%.
In the case of `CCCCCCCCCCCCC(C)(C)OC(=O)CC(=O)Nc1c(C(C)C)cccc1C(C)C`, the Change in [6] is on record as -19%; in assay [7], -11%; in assay [8], 6%; in assay [2], -72%; in [9], -13%; in [10], -12%. Further, in assay [11], the Change was -19%. Also, the IC50 in assay [1] stood at 0.012 µM.
In turn, `CCCCCCCCCCCC[C@@H](C)OC(=O)CC(=O)Nc1c(C(C)C)cccc1C(C)C` registered an IC50 in [1] of 0.004 µM. Further, the Change in assay [2] was -67%.
For `CCCCCCCCOC(=O)CC(=O)Nc1c(C(C)C)cccc1C(C)C`, the midpoint of inhibition in assay [1], the IC50, lay at 0.26 µM. The Change in [2] was -43%.
In turn, `CCCCCCCCC(C)OC(=O)CC(=O)Nc1c(C(C)C)cccc1C(C)C` (stereo not given) registered an IC50 in assay [1] of 0.012 µM. Besides, the Change in [2] is recorded as -61%.
In the same order, the values of `CCCCCCCCCCCCCCCCOC(=O)CC(=O)Nc1c(C(C)C)cccc1C(C)C` are 0.035 µM and -56%.
Regarding `CC(C)c1cccc(C(C)C)c1NC(=O)CC(=O)Oc1c(-c2ccccc2)cccc1-c1ccccc1`, the half-maximal inhibitory concentration (IC50) in assay [1] is 0.067 µM. Further, the Change in assay [2] is on record as -41%.
In turn, `CC(C)c1cccc(C(C)C)c1NC(=O)CC(=O)OC(C)(C)C` returned an IC50 in assay [1] of 0.13 µM. Besides, the Change in assay [2] is -24%.
In the same order, the values of `Cc1cccc(C)c1NC(=O)CC(=O)Oc1c(C(C)C)cccc1C(C)C` are 0.21 µM and 5%.
For `COc1cccc(OC)c1OC(=O)CC(=O)Nc1c(C(C)C)cccc1C(C)C`, in that order: 1.7 µM and 5%.
In the case of `CC(C)c1cccc(C(C)C)c1NC(=O)CC(=O)Oc1c(C(C)C)cccc1C(C)C`, the Change was 9% in assay [3], “Not significant” in assay [24] and under -50% in assay [2]. Moreover, the midpoint of inhibition in assay [1], the IC50, lay at 0.042 µM.
`CC(C)c1cccc(C(C)C)c1NC(=O)CC(=O)OC(c1ccccn1)c1ccccn1` showed an IC50 in assay [1] of over 5 µM. The Change in [2] is -55%.
In the same order, the values of `CCCCCCCCCCOC(=O)CC(=O)Nc1c(C(C)C)cccc1C(C)C` are 0.053 µM and -37%.
